In patent US20260124201A1, “CYCLOPENTANE COMPOUND” (Kissei Pharmaceutical Co., Ltd., priority 2022, published 2026):

Molecular target: T1, human OX2R (Homo sapiens, UniProt O43614)
T1 construct: expressed in transfected cells
T1 sequence (O43614 1-444): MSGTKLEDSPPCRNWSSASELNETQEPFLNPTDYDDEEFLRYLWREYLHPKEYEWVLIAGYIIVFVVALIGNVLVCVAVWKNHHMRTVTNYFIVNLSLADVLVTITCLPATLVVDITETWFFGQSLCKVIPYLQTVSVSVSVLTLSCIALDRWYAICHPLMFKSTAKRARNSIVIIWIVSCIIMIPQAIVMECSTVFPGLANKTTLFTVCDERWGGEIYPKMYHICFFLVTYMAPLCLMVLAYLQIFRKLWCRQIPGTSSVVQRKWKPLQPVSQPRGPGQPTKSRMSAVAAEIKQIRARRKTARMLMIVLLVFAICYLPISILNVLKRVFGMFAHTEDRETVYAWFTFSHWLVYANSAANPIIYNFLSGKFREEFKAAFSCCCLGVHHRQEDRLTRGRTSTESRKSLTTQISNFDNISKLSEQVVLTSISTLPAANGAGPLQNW
Test: Measurement of OX2R agonist activity (intracellular calcium concentration change, Fluo4-AM, FDSS 7000)
Assay type: cell-based
Conditions: compound concentration 10 μM; human OX2R-expressing CHO-K1 cells; 1 μM human orexin A peptide = 100%, medium alone = 0%
Outline: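 Stable human OX2R-expressing CHO-K1 cells, loaded 45 min at 37 °C with 1.14 μM Fluo4-AM plus probenecid in HEPES-buffered HBSS pH 7.4; calcium fluorescence read by FDSS. Activation at 10 μM compound expressed relative to 1 μM human orexin A (100%) and medium alone (0%).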

Going from `CCS(=O)(=O)N[C@H]1CC[C@](Cc2ccc(F)c(-c3ncc(F)cn3)c2)(C(=O)N(C)OC)C1` [Example 52, (1R,3S)-3-(Ethylsulfonamido)-1-(4-fluoro-3-(5-fluoropyrimidin-2-yl)benzyl)-N-methoxy-N-methylcyclopentane-1-carboxamide] to `C=CS(=O)(=O)N[C@H]1CC[C@](Cc2ccc(F)c(-c3ncc(F)cn3)c2)(C(=O)N(C)OC)C1` [Example 53, (1R,3S)-1-(4-Fluoro-3-(5-fluoropyrimidin-2-yl)benzyl)-N-methoxy-N-methyl-3-(vinylsulfonamido)cyclopentane-1-carboxamide], the “Act. (%): activation rate of test substance” value (from here on “Act. (%): activation rate”) rises from 99% to 106%.

First: CON(C)C(=O)[C@@]1(Cc2ccc(F)c(-c3ncc(F)cn3)c2)CC[C@H](NS(=O)(=O)C2COC2)C1 [Example 54, (1R,3S)-1-(4-Fluoro-3-(5-fluoropyrimidin-2-yl)benzyl)-N-methoxy-N-methyl-3-(oxetane-3-sulfonamido)cyclopentane-1-carboxamide]
Second: CON(C)C(=O)[C@@]1(Cc2ccc(O)c(-c3ncc(F)cn3)c2)CC[C@H](NS(C)(=O)=O)C1 [Example 55, (1R,3S)-1-(3-(5-Fluoropyrimidin-2-yl)-4-hydroxybenzyl)-N-methoxy-N-methyl-3-(methylsulfonamido)cyclopentane-1-carboxamide]
The “Act. (%): activation rate” value of the first is lower: 90% for the first, 106% for the second.

First: COc1ccc(C[C@]2(C(=O)N(C)OC)CC[C@H](NS(C)(=O)=O)C2)cc1-c1ncc(F)cn1 [Example 56, (1R,3S)-1-(3-(5-Fluoropyrimidin-2-yl)-4-methoxybenzyl)-N-methoxy-N-methyl-3-(methylsulfonamido)cyclopentane-1-carboxamide]
Second: CON(C)C(=O)[C@@]1(Cc2ccc(Cl)c(-c3ncc(F)cn3)c2)C[C@H](F)[C@H](NS(C)(=O)=O)C1 [Example 62, (1R,3S,4R)-1-(4-Chloro-3-(5-fluoropyrimidin-2-yl)benzyl)-3-fluoro-N-methoxy-N-methyl-4-(methylsulfonamido)cyclopentane-1-carboxamide]
The “Act. (%): activation rate” value of the first is lower: 51% for the first, 96% for the second.

First: CON(C)C(=O)[C@@]1(Cc2cccc(-c3ncc(F)cn3)c2)C[C@H](F)[C@H](NS(C)(=O)=O)C1 [Example 57, (1R,3S,4R)-3-Fluoro-1-(3-(5-fluoropyrimidin-2-yl)benzyl)-N-methoxy-N-methyl-4-(methylsulfonamido)cyclopentane-1-carboxamide]
Second: CCS(=O)(=O)N[C@@H]1C[C@@](Cc2cccc(-c3ncc(F)cn3)c2)(C(=O)N(C)OC)C[C@@H]1F [Example 59, (1R,3R,4S)-3-(Ethylsulfonamido)-4-fluoro-1-(3-(5-fluoropyrimidin-2-yl)benzyl)-N-methoxy-N-methylcyclopentane-1-carboxamide]
The “Act. (%): activation rate” value of the first is lower: 92% for the first, 98% for the second.

Going from `CON(C)C(=O)[C@@]1(Cc2cccc(-c3ncc(F)cn3)c2)C[C@H](F)[C@H](NS(=O)(=O)C(C)C)C1` [Example 58, (1R,3S,4R)-3-Fluoro-1-(3-(5-fluoropyrimidin-2-yl)benzyl)-N-methoxy-N-methyl-4-((1-methylethyl)sulfonamido)cyclopentane-1-carboxamide] to `CON(C)C(=O)[C@@]1(Cc2cccc(-c3ncc(F)cn3)c2)C[C@H](F)[C@H](NS(=O)(=O)C2CC2)C1` [Example 60, (1R,3R,4S)-3-(Cyclopropanesulfonamido)-4-fluoro-1-(3-(5-fluoropyrimidin-2-yl)benzyl)-N-methoxy-N-methylcyclopentane-1-carboxamide], the “Act. (%): activation rate” value falls from 95% to 94%.

Going from `CCS(=O)(=O)N[C@@H]1C[C@@](Cc2cc(-c3ncccn3)ccc2F)(C(=O)N(C)OC)C[C@@H]1F` [Example 61, (1R,3R,4S)-3-(Ethylsulfonamido)-4-fluoro-1-(2-fluoro-5-(pyrimidin-2-yl)benzyl)-N-methoxy-N-methylcyclopentane-1-carboxamide] to `CCS(=O)(=O)N[C@@H]1C[C@@](Cc2ccc(Cl)c(-c3ncc(F)cn3)c2)(C(=O)N(C)OC)C[C@@H]1F` [Example 63, (1R,3R,4S)-1-(4-Chloro-3-(5-fluoropyrimidin-2-yl)benzyl)-3-(ethylsulfonamido)-4-fluoro-N-methoxy-N-methylcyclopentane-1-carboxamide], the “Act. (%): activation rate” value falls from 105% to 96%.

Compared with `CON(C)C(=O)[C@@]1(Cc2ccc(F)c(-c3ncc(F)cn3)c2)C[C@@H](F)[C@H](NS(C)(=O)=O)C1` [Example 64, (1R,3R,4R)-3-Fluoro-1-(4-fluoro-3-(5-fluoropyrimidin-2-yl)benzyl)-N-methoxy-N-methyl-4-(methylsulfonamido)cyclopentane-1-carboxamide], `CO[C@H]1C[C@](Cc2cccc(-c3ncc(F)cn3)c2)(C(=O)N(C)OC)C[C@H]1NS(C)(=O)=O` [Example 67, (1R,3S,4R)-1-(3-(5-Fluoropyrimidin-2-yl)benzyl)-N,3-dimethoxy-N-methyl-4-(methylsulfonamido)cyclopentane-1-carboxamide] is lower in “Act. (%): activation rate” value: 101% for the first, 88% for the second.

Compared with `CON(C)C(=O)[C@]1(Cc2cccc(-c3ncccn3)c2)C[C@@H](NS(C)(=O)=O)C(F)(F)C1` [Example 65, (1R,4R)-3,3-Difluoro-N-methoxy-N-methyl-4-(methylsulfonamido)-1-(3-(pyrimidin-2-yl)benzyl)cyclopentane-1-carboxamide], `CON(C)C(=O)[C@]1(Cc2cccc(-c3ncc(F)cn3)c2)C[C@@H](NS(C)(=O)=O)C(F)(F)C1` [Example 66, (1R,4R)-3,3-Difluoro-1-(3-(5-fluoropyrimidin-2-yl)benzyl)-N-methoxy-N-methyl-4-(methylsulfonamido)cyclopentane-1-carboxamide] is higher in “Act. (%): activation rate” value: 86% for the first, 95% for the second.

For `CO[C@@H]1C[C@](Cc2cccc(-c3ncc(F)cn3)c2)(C(=O)N(C)OC)C[C@H]1NS(C)(=O)=O` [Example 68], the “Act. (%): activation rate” value was 91%.

Test system: wild-type mice
Test: not given
Conditions: subcutaneous administration; cited from earlier work

In the case of `COC(=O)N1CCC[C@H](NS(C)(=O)=O)[C@@H]1CO[C@H]1CC[C@@H](c2ccccc2)CC1` [TAK-925], the wake time is given as “prolonging of wake time”.

Test system: NT1 patients
Test: not given
Conditions: clinical study; cited from earlier work

For `COC(=O)N1CCC[C@H](NS(C)(=O)=O)[C@@H]1CO[C@H]1CC[C@@H](c2ccccc2)CC1` [TAK-925], the “wakefulness and daytime sleepiness” value is given as “maintaining wakefulness and reducing daytime sleepiness”.
